# Measured values from patent publication US20240158446A1, “CYCLIC COMPOUND HAVING SELECTIVE INHIBITORY ACTION ON KRAS OVER HRAS AND NRAS” (CHUGAI SEIYAKU KABUSHIKI KAISHA, priority 2021, published 2024).
# Tests used:
# [1] = target: GDP-bound KRAS wild-type protein (Homo sapiens, UniProt P01116); experiment: Binding to KRAS by surface plasmon resonance (SPR), Single Cycle Kinetics; conditions: SPR, Single Cycle Kinetics, 1:1 binding model; GDP-bound KRAS wild-type protein; read-out: KRAS KD
# [2] = target: GDP-bound NRAS wild-type protein (Homo sapiens, UniProt P01111); experiment: Binding to NRAS by surface plasmon resonance (SPR), Single Cycle Kinetics; conditions: SPR; GDP-bound NRAS wild-type protein vs GDP-bound KRAS wild-type protein; KD ratio class
# [3] = target: GDP-bound HRAS wild-type protein (Homo sapiens, UniProt P01112); experiment: Binding to HRAS by surface plasmon resonance (SPR), Single Cycle Kinetics; conditions: SPR; GDP-bound HRAS wild-type protein vs GDP-bound KRAS wild-type protein; KD ratio class
# GDP-bound HRAS wild-type protein, sequence (P01112 whole entry): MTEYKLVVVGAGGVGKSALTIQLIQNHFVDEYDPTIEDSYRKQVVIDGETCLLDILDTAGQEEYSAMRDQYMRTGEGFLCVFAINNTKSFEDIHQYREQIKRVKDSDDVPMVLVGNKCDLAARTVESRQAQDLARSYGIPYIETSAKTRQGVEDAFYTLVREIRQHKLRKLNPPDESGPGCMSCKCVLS
# GDP-bound NRAS wild-type protein, sequence (P01111 whole entry): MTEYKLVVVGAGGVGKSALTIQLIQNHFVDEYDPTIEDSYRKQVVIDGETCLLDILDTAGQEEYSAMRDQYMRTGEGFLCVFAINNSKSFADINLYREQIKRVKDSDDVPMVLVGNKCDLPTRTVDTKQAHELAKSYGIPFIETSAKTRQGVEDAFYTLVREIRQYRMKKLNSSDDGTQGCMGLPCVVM
# GDP-bound KRAS wild-type protein, sequence (P01116 whole entry): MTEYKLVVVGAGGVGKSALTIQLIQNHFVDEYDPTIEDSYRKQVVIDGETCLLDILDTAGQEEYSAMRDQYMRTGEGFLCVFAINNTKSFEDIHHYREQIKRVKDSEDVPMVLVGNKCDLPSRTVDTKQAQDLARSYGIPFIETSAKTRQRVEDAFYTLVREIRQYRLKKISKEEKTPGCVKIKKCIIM
Structure (SMILES),Kd [1],NRAS/KRAS (ratio of KD value for NRAS to KD value for KRAS) [2],HRAS/KRAS (ratio of KD value for HRAS to KD value for KRAS) [3]
"CCO[C@@H]1C[C@H]2C(=O)NC3(CCC3)C(=O)N(C)[C@@H](C3CCCC3)C(=O)N(C)[C@H](C(=O)N(CC)CC)CC(=O)N(C)[C@@H](C)C(=O)N[C@@H]([C@@H](C)CC)C(=O)N(C)CC(=O)N(C)[C@H]3C/C=C\CCN(C3=O)[C@@H](Cc3ccc(C(F)(F)F)cc3)C(=O)N(C)CC(=O)N[C@@H](CCc3cc(F)c(C(F)(F)F)c(F)c3)C(=O)N2C1 [PP1308, (2S,8S,12R,14S,20S,23S,27S,30S,36S,38Z)-20-cyclopentyl-8-[2-[3,5-difluoro-4-(trifluoromethyl)phenyl]ethyl]-12-ethoxy-N,N-diethyl-4,19,22,26,27,32,35-heptamethyl-30-[(1S)-1-methylpropyl]-3,6,9,15,18,21,25,28,31,34,42-undecaoxo-2-[[4-(trifluoromethyl)phenyl]methyl]spiro[1,4,7,10,16,19,22,26,29,32,35-undecazatricyclo[34.5.1.0^10,14]dotetracont-38-ene-17,1′-cyclobutane]-23-carboxamide]",100 pM,A (a compound having 10 or more and less than 20 is denoted as A),A (a compound having 10 or more and less than 20 is denoted as A)
"CCC[C@H]1C(=O)N[C@@H]([C@@H](C)CC)C(=O)N(C)CC(=O)N(C)[C@H]2C/C=C\CCN(C2=O)[C@@H](Cc2ccc(C(F)(F)F)cc2)C(=O)N(C)CC(=O)N[C@@H](CCc2cc(F)c(C(F)(F)F)c(F)c2)C(=O)N2C[C@H](OCC)C[C@H]2C(=O)NC2(CCC2)C(=O)N(C)[C@@H](C2CCCC2)C(=O)N(C)[C@H](C(=O)N(CC)CC)CC(=O)N1C [PP1310, (2S,8S,12R,14S,20S,23S,27S,30S,36S,38Z)-20-cyclopentyl-8-[2-[3,5-difluoro-4-(trifluoromethyl)phenyl]ethyl]-12-ethoxy-N,N-diethyl-4,19,22,26,32,35-hexamethyl-30-[(1S)-1-methylpropyl]-3,6,9,15,18,21,25,28,31,34,42-undecaoxo-27-propyl-2-[[4-(trifluoromethyl)phenyl]methyl]spiro[1,4,7,10,16,19,22,26,29,32,35-undecazatricyclo[34.5.1.0^10,14]dotetracont-38-ene-17,1′-cyclobutane]-23-carboxamide]",130 pM,AA (a compound having 20 or more is denoted as AA),A (a compound having 10 or more and less than 20 is denoted as A)
"CCO[C@@H]1C[C@H]2C(=O)NC3(CCC3)C(=O)N(C)[C@@H](C3CCCC3)C(=O)N(C)[C@H](C(=O)N(C)CCOC)CC(=O)N(C)[C@@H](CC)C(=O)N[C@@H]([C@@H](C)CC)C(=O)N(C)CC(=O)N(C)[C@H]3C/C=C\CCN(C3=O)[C@@H](Cc3ccc(C(F)(F)F)cc3)C(=O)N(C)CC(=O)N[C@@H](CCc3cc(F)c(C(F)(F)F)c(F)c3)C(=O)N2C1 [PP1316, (2S,8S,12R,14S,20S,23S,27S,30S,36S,38Z)-20-cyclopentyl-8-[2-[3,5-difluoro-4-(trifluoromethyl)phenyl]ethyl]-12-ethoxy-27-ethyl-N-(2-methoxyethyl)-N,4,19,22,26,32,35-heptamethyl-30-[(1S)-1-methylpropyl]-3,6,9,15,18,21,25,28,31,34,42-undecaoxo-2-[[4-(trifluoromethyl)phenyl]methyl]spiro[1,4,7,10,16,19,22,26,29,32,35-undecazatricyclo[34.5.1.0^10,14]dotetracont-38-ene-17,1′-cyclobutane]-23-carboxamide]",72 pM,A (a compound having 10 or more and less than 20 is denoted as A),A (a compound having 10 or more and less than 20 is denoted as A)
CCO[C@@H]1C[C@H]2C(=O)NC3(CCC3)C(=O)N(C)[C@@H](C3CCCC3)C(=O)N(C)[C@H](C(=O)N(C)CCOC)CC(=O)N(C)[C@@H](CC(C)C)C(=O)N[C@@H]([C@@H](C)CC)C(=O)N(C)CC(=O)N(C)[C@H]3C/C=C\CCN(C3=O)[C@@H](Cc3ccc(C(F)(F)F)cc3)C(=O)N(C)CC(=O)N[C@@H](CCc3cc(F)c(C(F)(F)F)c(F)c3)C(=O)N2C1 [PP1317],94 pM,A (a compound having 10 or more and less than 20 is denoted as A),B (a compound having 3 or more and less than 10 is denoted as B)
CCO[C@@H]1C[C@H]2C(=O)NC3(CCC3)C(=O)N(C)[C@@H](C3CCCC3)C(=O)N(C)[C@H](C(=O)N(C)CCOC)CC(=O)N(C)[C@@H](CC3CC3)C(=O)N[C@@H]([C@@H](C)CC)C(=O)N(C)CC(=O)N(C)[C@H]3C/C=C\CCN(C3=O)[C@@H](Cc3ccc(C(F)(F)F)cc3)C(=O)N(C)CC(=O)N[C@@H](CCc3cc(F)c(C(F)(F)F)c(F)c3)C(=O)N2C1 [PP1318],91 pM,A (a compound having 10 or more and less than 20 is denoted as A),A (a compound having 10 or more and less than 20 is denoted as A)
"CCO[C@@H]1C[C@H]2C(=O)NC3(CCC3)C(=O)N(C)[C@@H](C3CCCC3)C(=O)N(C)[C@H](C(=O)N(C)CCOC)CC(=O)N(C)[C@@H](C)C(=O)N[C@@H]([C@@H](C)CC)C(=O)N(C)CC(=O)N(C)[C@H]3C/C=C\CCN(C3=O)[C@@H](Cc3ccc(C(F)(F)F)cc3)C(=O)N(C)CC(=O)N[C@@H](CCc3cc(F)c(C(F)(F)F)c(F)c3)C(=O)N2C1 [PP1319, (2S,8S,12R,14S,20S,23S,27S,30S,36S,38Z)-20-cyclopentyl-8-[2-[3,5-difluoro-4-(trifluoromethyl)phenyl]ethyl]-12-ethoxy-N-(2-methoxyethyl)-N,4,19,22,26,27,32,35-octamethyl-30-[(1S)-1-methylpropyl]-3,6,9,15,18,21,25,28,31,34,42-undecaoxo-2-[[4-(trifluoromethyl)phenyl]methyl]spiro[1,4,7,10,16,19,22,26,29,32,35-undecazatricyclo[34.5.1.0^10,14]dotetracont-38-ene-17,1′-cyclobutane]-23-carboxamide]",69 pM,A (a compound having 10 or more and less than 20 is denoted as A),B (a compound having 3 or more and less than 10 is denoted as B)
CCO[C@@H]1C[C@H]2C(=O)NC3(CCC3)C(=O)N(C)[C@@H](C3CCCC3)C(=O)N(C)[C@H](C(=O)N(C)CCOC)CC(=O)N(C)[C@@H](CC(F)F)C(=O)N[C@@H]([C@@H](C)CC)C(=O)N(C)CC(=O)N(C)[C@H]3C/C=C\CCN(C3=O)[C@@H](Cc3ccc(C(F)(F)F)cc3)C(=O)N(C)CC(=O)N[C@@H](CCc3cc(F)c(C(F)(F)F)c(F)c3)C(=O)N2C1 [PP1320],57 pM,A (a compound having 10 or more and less than 20 is denoted as A),A (a compound having 10 or more and less than 20 is denoted as A)
"CCO[C@@H]1C[C@H]2C(=O)NC3(CCC3)C(=O)N(C)[C@@H](C3CCCC3)C(=O)N(C)[C@H](C(=O)N(C)CCOC)CC(=O)N(C)[C@@H](CC)C(=O)N[C@@H]([C@@H](C)CC)C(=O)N(C)CC(=O)N(C)[C@H]3C/C=C\CCN(C3=O)[C@@H](Cc3ccc(C(F)(F)F)cc3)C(=O)N(C)CC(=O)N[C@@H](CCc3ccc(C(F)(F)F)c(OC)c3)C(=O)N2C1 [PP1321, (2S,8S,12R,14S,20S,23S,27S,30S,36S,38Z)-20-cyclopentyl-12-ethoxy-27-ethyl-N-(2-methoxyethyl)-8-[2-[3-methoxy-4-(trifluoromethyl)phenyl]ethyl]-N,4,19,22,26,32,35-heptamethyl-30-[(1S)-1-methylpropyl]-3,6,9,15,18,21,25,28,31,34,42-undecaoxo-2-[[4-(trifluoromethyl)phenyl]methyl]spiro[1,4,7,10,16,19,22,26,29,32,35-undecazatricyclo[34.5.1.0^10,14]dotetracont-38-ene-17,1′-cyclobutane]-23-carboxamide]",80 pM,A (a compound having 10 or more and less than 20 is denoted as A),B (a compound having 3 or more and less than 10 is denoted as B)
CCO[C@@H]1C[C@H]2C(=O)NC3(CCC3)C(=O)N(C)[C@@H](C3CCCC3)C(=O)N(C)[C@H](C(=O)N(C)CCOC)CC(=O)N(C)[C@@H](CC)C(=O)N[C@@H]([C@@H](C)CC)C(=O)N(C)CC(=O)N(C)[C@H]3C/C=C\CCN(C3=O)[C@@H](Cc3ccc(C(F)(F)F)cc3)C(=O)N(C)CC(=O)N[C@@H](CCc3ccc4sccc4c3)C(=O)N2C1 [PP1322],590 pM,A (a compound having 10 or more and less than 20 is denoted as A),A (a compound having 10 or more and less than 20 is denoted as A)
"CCO[C@@H]1C[C@H]2C(=O)NC3(CCC3)C(=O)N(C)[C@@H](C3CCCC3)C(=O)N(C)[C@H](C(=O)N(C)CCOC)CC(=O)N(C)[C@@H](CC(C)C)C(=O)N[C@@H]([C@@H](C)CC)C(=O)N(C)CC(=O)N(C)[C@H]3C/C=C\CCN(C3=O)[C@@H](Cc3ccc(C(F)(F)F)cc3)C(=O)N(C)CC(=O)N[C@@H](CCc3ccc(C(F)(F)F)c(OC)c3)C(=O)N2C1 [PP1324, (2S,8S,12R,14S,20S,23S,27S,30S,36S,38Z)-20-cyclopentyl-12-ethoxy-27-isobutyl-N-(2-methoxyethyl)-8-[2-[3-methoxy-4-(trifluoromethyl)phenyl]ethyl]-N,4,19,22,26,32,35-heptamethyl-30-[(1S)-1-methylpropyl]-3,6,9,15,18,21,25,28,31,34,42-undecaoxo-2-[[4-(trifluoromethyl)phenyl]methyl]spiro[1,4,7,10,16,19,22,26,29,32,35-undecazatricyclo[34.5.1.0^10,14]dotetracont-38-ene-17,1′-cyclobutane]-23-carboxamide]",93 pM,A (a compound having 10 or more and less than 20 is denoted as A),A (a compound having 10 or more and less than 20 is denoted as A)
